Values after ≈ are worked out from the molar mass of the structure shown.
Key:
[1] = system: Enterococcus faecalis ATCC 51575 (resistant); assay type: cell-based
Description: (§1) We screened all five peptides against the ATCC reference strains and the clinical isolates according to Method M7-A7 of the National Committee for Clinical Laboratory Standards (CLSI, [2007]). The MIC50 and MBC values were determined using a broth microdilution and growth inhibition method previously reported by Leon-Calvijo et al. ([2015]), with some modifications (Wiegand et al., [2008]). Briefly, the MIC50 experiments comprised a liquid-inhibition growth assay in a sterile, untreated, 96-well flat-bottom tissue culture plate. The bacteria were cultured overnight n Mueller Hinton agar; three colonies were transferred to 8 mL of Mueller Hilton broth and incubated at 37°C until the mid-exponential phase of growth. The turbidity of the cultures was measured and adjusted spectrophotometrically to a McFarland standard of 0.5, and then diluted to a final concentration of 5 × 10^7 colony forming units (CFU) per well. Stock solutions (2,000 μM) of each test peptide were serially diluted to final concentrations (per well) of 200, 100, 50, 25, 12.5, and 6.25 μM. Each concentration was evaluated in duplicate and each assay was performed in triplicate.
(§2) Wells containing Mueller Hilton broth with bacterial inoculum only served as bacterial-growth controls. Additional controls included Mueller Hilton broth alone (as blank) and Mueller Hilton broth with ciprofloxacin (2 μg/mL; as positive control). The microplate was incubated for 24 h at 37°C, and growth inhibition was measured by monitoring the optical density at 620 nm (OD620). The MIC50 was defined as the peptide concentration at which bacterial growth was inhibited by 50%.
(§3) To determine the MBC, an aliquot from each well of the MIC50 assay was spread onto Mueller Hilton agar. After 18 h at 37°C, the concentration that inhibited bacterial growth was determined. Each of these tests was performed four times. MBC was defined as the lowest concentration of peptide at which the number of bacteria was reduced by 99.9% in vitro (European Committee for Antimicrobial Susceptibility Testing, [2000]).

[2] = system: Pseudomonas aeruginosa ATCC 27853 (resistant); assay type: cell-based
Description: as §1, §2, §3

[3] = system: Pseudomonas aeruginosa ATCC 10145 (sensitive); assay type: cell-based
Description: as §1, §2, §3

[4] = system: Enterococcus faecalis ATCC 29212 (sensitive); assay type: cell-based; details: ATCC 29212, 18 h
Description: as §1, §2, §3

[5] = system: human erythrocytes; assay: Hemolytic activity; assay type: cell-based; details: red cells of human, 2 h
Description: Human erythrocytes collected from the blood samples of healthy humans were harvested by centrifugation for 7 min at 162 × g and washed three times in phosphate-buffered saline (PBS). The erythrocytes (2% hematocrit in PBS) were incubated with peptide molecules at several concentrations (6.25, 12.5, 25, 50, and 100 μM) for 2 h at 37°C. PBS was used as negative control for hemolysis, and sterile distilled water was used as positive control (100% hemolysis). The plate was subsequently centrifuged at 1,459 × g for 10 min at 4°C. Aliquots of the supernatant from each well (75 μL) were carefully transferred to a new sterile 96-well plate, and hemolytic activity was evaluated by measuring the OD492 using an Asys Expert Plus Microplate reader. The experiments were performed in duplicate, and hemolytic activity was calculated for each peptide.

[6] = system: Gram-negative ATCC strains (K. pneumoniae 13883 and 700603, P. aeruginosa 10145 and 27853)
From the text: We determined the therapeutic index of each peptide, which we defined as the ratio of Maximum Hemolytic Activity (Hmax) to MIC50 (Hmax/MIC50).
The therapeutic index (TI) is a ratio of the toxic dose of a substance to its therapeutically-active dose and can be calculated different ways (e.g., LD50/ED50). Here, we calculated a TI value for each peptide against all the Gram-positive or the Gram-negative ATCC strains, by dividing its Hmax by its MIC50 for the given group of strains. […] Additionally, to make our quantitative analysis more robust [geometric mean (Khachatryan et al., [2017]) and fold values], we have included MIC50 values for these peptides against S. aureus and K. pneumoniae that we previously obtained using the same assay, the M7-A7 method of the National Committee for Clinical Laboratory Standards (Leon-Calvijo et al., [2015]).

MIC50 ([1]; ATCC 51575, 24 h): >200.0 µM | MIC50 ([2]; ATCC 27853, 24 h): 99.6 µM (≈ 199 µg/mL) | MIC50 ([3]; ATCC 10145, 24 h): 111.7 µM (≈ 223 µg/mL) | Gm, geometric mean of MIC50 values [6]: 105.5
Structure (SMILES): CSCC[C@H](NC(=O)[C@H](CCCNC(=N)N)NC(=O)[C@H](Cc1c[nH]c2ccccc12)NC(=O)[C@H](CCC(N)=O)NC(=O)[C@H](Cc1c[nH]c2ccccc12)NC(=O)[C@H](CCCNC(=N)N)NC(=O)[C@H](CCCNC(=N)N)NC(=O)[C@H](CS)NC(=O)[C@H](CCCCN)NC(=O)[C@@H](N)Cc1ccccc1)C(=O)N[C@@H](CCCCN)C(=O)N[C@@H](CCCCN)C(=O)N[C@@H](CC(C)C)C(=O)NCC(=O)N[C@@H](C)C(N)=O [LfcinB (17–31), reference compound]
MBC ([1]; ATCC 51575, 18 h): >200.0 µM | MBC ([2]; ATCC 27853, 18 h): >200.0 µM | MBC ([3]; ATCC 10145, 18 h): >200.0 µM | MBC [4]: >200.0 µM | H50, concentration of peptide leading to 50% hemolysis [5]: >100 µM
